Experimental findings from patent publication EP2975030B1, “DIHYDROPYRIDAZINE-3,5-DIONE DERIVATIVE” (Chugai Seiyaku Kabushiki Kaisha, priority 2013, dated 2014) are described below.

For the assay, the system named is rat small-intestinal brush border membrane vesicles. In words: Inhibitory effect on 33PO4 uptake into rat small-intestinal brush border membrane vesicles (rapid filtration method). The format is biochemical, Wistar female rat. The conditions noted are these: 1 µM test compound; 33PO4 uptake into rat small-intestinal BBMVs, 60 seconds. The procedure, abridged: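 33PO4 uptake into rat small-intestinal brush border membrane vesicles measured by rapid filtration. Reactions were stopped with ice-cold buffer (110 mM NaCl, 1 mM KH2PO4, 10 mM HEPES pH 7.5), filtered and washed. Vesicle-associated radioactivity was counted by liquid scintillation.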

Regarding `COCCN(C)CCNc1ccc(CN2C(=O)C(C(=O)Nc3ccc(C(F)(F)F)cc3-c3cc(C(F)(F)F)ncn3)=C(O)C3(CCCC3)N2C)c(F)c1F` [Example 417, 7-(2,3-Difluoro-4-((2-((2-methoxyethyl)(methyl)amino)ethyl)amino)benzyl)-10-hydroxy-6-methyl-8-oxo-N-(4-(trifluoromethyl)-2-(6-(trifluoromethyl)pyrimidin-4-yl)phenyl)-6,7-diazaspiro[4.5]dec-9-ene-9-carboxamide], the “Rate of uptake inhibition (%) (1 µM)” value is listed as 48%.
Turning to `C[C@]12CCCN1N(Cc1cccc(F)c1)C(=O)C(C(=O)Nc1ccc(C(F)(F)F)cc1-c1ccc(C(F)(F)F)nc1)=C2O` [Example 206], the “Rate of uptake inhibition (%) (1 µM)” value is reported as 76%.
As for `C[C@]12CCCN1N(Cc1c(F)cc(CCCCCCCOC[C@H](O)[C@@H](O)CO)cc1F)C(=O)C(C(=O)Nc1ccc(C(F)(F)F)cc1-c1ccc(C(F)(F)F)nc1)=C2O` [Example 125, (4aR)-1-[[2,6-Difluoro-4-[7-[(2S,3S)-2,3,4-trihydroxybutoxy]heptyl]phenyl]methyl]-4-hydroxy-4a-methvl-2-oxo-N-[4-(trifluoromethyl)-2-[6-(trifluoromethyl)pyridin-3-yl]phenyl]-6,7-dihydro-5H-pyrrolo[1,2-b]pyridazine-3-carboxamide], the “Rate of uptake inhibition (%) (1 µM)” value is reported as 76%.
To `CN1N(Cc2cccc(F)c2F)C(=O)C(C(=O)Nc2ccc(Cl)cc2-c2cc(C(F)(F)F)ncn2)=C(O)C12CCC2` [Example 255] belongs 80%; to `CN(C[C@H](O)[C@@H](O)[C@H](O)[C@H](O)CO)C(=O)COCCOCCOCCOCCOc1ccc(CN2C(=O)C(C(=O)Nc3ccc(C(F)(F)F)cc3-c3cc(C(F)(F)F)ncn3)=C(O)C3(CCCC3)N2C)c(F)c1F` [Example 441, 7-[[2,3-Difluoro-4-[2-[2-[2-[2-[2-[methyl-[(2S,3R,4R,5R)-2,3,4,5,6-pentahydroxyhexyl]amino]-2-oxoethoxy]ethoxy]ethoxy]ethoxy]ethoxy]phenyl]methyl]-10-hydroxy-6-methyl-8-oxo-N-[4-(trifluoromethyl)-2-[6-(trifluoromethyl)pyrimidin-4-yl]phenyl]-6,7-diazaspiro[4.5]dec-9-ene-9-carboxamide], 22%; to `CN1N(Cc2ccc(OCCN3CCC(N4CCOCC4)CC3)c(F)c2F)C(=O)C(C(=O)Nc2ccc(C(F)(F)F)cc2-c2cc(C(F)(F)F)ncn2)=C(O)C12CCCC2` [Example 374], 42%.
The result for `CN1N(Cc2ccc(OCCNC(CC(=O)O)CC(=O)O)c(F)c2F)C(=O)C(C(=O)Nc2ccc(C(F)(F)F)cc2-c2cc(C(F)(F)F)ncn2)=C(O)C12CCCC2` [Example 382, 3-[2-[2,3-Difluoro-4-[[10-hydroxy-6-methyl-8-oxo-9-[[4-(trifluoromethyl)-2-[6-(trifluoromethyl)pyrimidin-4-yl]phenyl]carbamoyl]-6,7-diazaspiro[4.5]dec-9-en-7-yl]methyl]phenoxy]ethylamino]pentanedioate] reads 21%; that for `CN1N(Cc2ccc(OCCCOC[C@H](O)CO)c(F)c2F)C(=O)C(C(=O)Nc2ccc(C(F)(F)F)cc2-c2cc(C(F)(F)F)ncn2)=C(O)C12CCC2` [Example 389], 29%; that for `COC(C)(C)CN(C)CCOc1ccc(CN2C(=O)C(C(=O)Nc3ccc(C(F)(F)F)cc3-c3cc(C(F)(F)F)ncn3)=C(O)C3(CCC3)N2C)c(F)c1F` [Example 350], 45%.
On to `Cc1cc(-c2cc(C(F)(F)F)ccc2NC(=O)C2=C(O)[C@@]3(C)CCCN3N(Cc3cccc(F)c3F)C2=O)cnc1C#N` [Example 101], for which the “Rate of uptake inhibition (%) (1 µM)” value is listed as 57%.
The result for `CN1[C@@H](C(C)(C)C)C(O)=C(C(=O)Nc2ccc(C(F)(F)F)cc2-c2ccc(C(F)(F)F)nc2)C(=O)N1Cc1ccc(OCCN2CCOCC2)c(F)c1F` [Example 266] reads 62%.
